Test results: article PMC9326216, “Treatment of Cardiovascular Dysfunction with PDE3-Inhibitors in Moderate and Severe Hypothermia—Effects on Cellular Elimination of Cyclic Adenosine Monophosphate and Cyclic Guanosine Monophosphate” (Frontiers in Physiology, 2022)
Like-named read-outs stand apart in the source and are kept apart here.

Key:
PDE3 = settings: ref Pathak et al., 2013; cited from earlier work
ABCC5 = format: biochemical
Protocol: Freshly collected EDTA blood from healthy donors (n = 35) was prepared at 0°C–4°C, starting by separating the erythrocytes from plasma by centrifugation at 2,300 g for approximately 15 min. […] Lysis followed thereafter, with ten volumes of 5 mM Tris-HCl, 0.5 mM EGTA, 4 mM KCl (pH 8.1) and washed by repeated centrifugation at 20,000 g for 20 min and resuspension in the same buffer. Vesiculation was initiated by adding 39 volumes of a […] buffer ([…] Tris-HCl, pH 8.2) to one volume of cell suspension and completed by forcing the solution five times through a 27-gauge syringe needle to promote homogenization of the membranes. […] The resulting IOVs, which still contained ABC-transporters in the membrane, enabled us to control the intracellular environment, in this case the surrounding medium, and collect the cyclic nucleotides within. […] Radioactive labeled (^3H)-cAMP or (^3H)-cGMP (Perkin Elmer, Boston, MA, United States) were added to the incubation solutions in the concentration 20 and 2 μM, respectively, depending on the transporter examined, together with the appointed study drug in concentrations up to 1 mM. […] Next step was to collect the IOVs, which was done by filtration through a nitrocellulose membrane (Bio-Rad Laboratories, Feldkirchen, Germany), and then drying it. The resulting collection of radioactivity upon the filter, was later quantified by using a Packard TopCount NXT (Packard, Downers Grove, IL, United states) after adding scintillation fluid (MicroScint-O, PerkinElmer, Groningen, Netherlands).
IC50 and Ki values were calculated for each of the drugs, both for their ability to inhibit cAMP- and cGMP- efflux, as well as PDE3 and PDE5 activity. […] Inhibition curves were created accordingly, both with and without adjustment for normothermic control.

Sequence of PDE3 (Q14432 whole entry): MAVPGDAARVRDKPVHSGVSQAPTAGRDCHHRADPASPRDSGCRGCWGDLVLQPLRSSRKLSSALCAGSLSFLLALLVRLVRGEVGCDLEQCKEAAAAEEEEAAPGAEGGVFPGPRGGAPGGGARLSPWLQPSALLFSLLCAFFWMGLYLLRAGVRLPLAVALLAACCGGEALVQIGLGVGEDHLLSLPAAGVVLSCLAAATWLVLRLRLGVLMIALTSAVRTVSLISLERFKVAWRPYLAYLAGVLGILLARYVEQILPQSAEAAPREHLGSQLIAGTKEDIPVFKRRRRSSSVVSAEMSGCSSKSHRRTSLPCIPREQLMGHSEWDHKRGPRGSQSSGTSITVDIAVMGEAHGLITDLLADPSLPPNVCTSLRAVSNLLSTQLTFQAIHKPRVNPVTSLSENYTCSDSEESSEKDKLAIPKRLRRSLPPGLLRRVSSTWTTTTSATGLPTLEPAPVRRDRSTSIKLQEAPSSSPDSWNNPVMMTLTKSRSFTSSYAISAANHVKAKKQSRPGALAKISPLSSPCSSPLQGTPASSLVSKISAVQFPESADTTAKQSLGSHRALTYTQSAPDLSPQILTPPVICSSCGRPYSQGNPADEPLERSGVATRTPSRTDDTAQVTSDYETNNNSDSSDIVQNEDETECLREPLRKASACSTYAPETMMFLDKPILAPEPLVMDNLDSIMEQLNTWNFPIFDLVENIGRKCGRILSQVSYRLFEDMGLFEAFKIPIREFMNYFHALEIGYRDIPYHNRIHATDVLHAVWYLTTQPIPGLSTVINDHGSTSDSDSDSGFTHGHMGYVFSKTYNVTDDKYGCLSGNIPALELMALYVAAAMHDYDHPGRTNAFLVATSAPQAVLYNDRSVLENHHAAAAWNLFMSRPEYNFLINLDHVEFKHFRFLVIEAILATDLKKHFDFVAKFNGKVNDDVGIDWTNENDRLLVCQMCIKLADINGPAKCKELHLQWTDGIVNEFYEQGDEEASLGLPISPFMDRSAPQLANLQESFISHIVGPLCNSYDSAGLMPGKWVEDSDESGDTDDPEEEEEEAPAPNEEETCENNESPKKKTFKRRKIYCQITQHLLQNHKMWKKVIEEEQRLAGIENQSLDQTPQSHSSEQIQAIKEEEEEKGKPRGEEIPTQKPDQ

## C[C@@H]1CC(=O)NN=C1c1ccc(NN=C(C#N)C#N)cc1 [Levosimendan]
PDE3
  Concentration at which it acts as a PDE3 inhibitor: > 0.3 µM
ABCC5; 20°C
  Drug selectivity (IC50)/(IC50): (cGMP-efflux)/(PDE5) inhibition: 0.045
ABCC5; 24°C
  Drug selectivity (IC50)/(IC50): (cGMP-efflux)/(PDE5) inhibition: 0.124
ABCC5; 28°C
  Drug selectivity (IC50)/(IC50): (cGMP-efflux)/(PDE5) inhibition: 0.065
  Drug selectivity (IC50)/(IC50): (cGMP-efflux)/(cAMP-efflux) inhibition: 0.44
ABCC5; 32°C
  Drug selectivity (IC50)/(IC50): (cGMP-efflux)/(PDE5) inhibition: 0.081
  Drug selectivity (IC50)/(IC50): (cGMP-efflux)/(cAMP-efflux) inhibition: 0.80
ABCC5; 34°C
  Drug selectivity (IC50)/(IC50): (cGMP-efflux)/(PDE5) inhibition: 0.093
  Drug selectivity (IC50)/(IC50): (cGMP-efflux)/(cAMP-efflux) inhibition: 1.09
ABCC5; 37°C
  Drug selectivity (IC50)/(IC50): (cGMP-efflux)/(PDE5) inhibition: 0.184
  Drug selectivity (IC50)/(IC50): (cGMP-efflux)/(cAMP-efflux) inhibition: 3.03
